Measured values published in US20190257817A1, “METHODS AND SYSTEMS FOR SCREENING CANDIDATE COMPOUNDS FOR THEIR POTENTIAL TO CAUSE SYSTEMIC OR HEPATIC TOXICITY” (Qualyst Transporter Solutions, LLC, priority 2016, published 2019).
Entries after “also recorded” stand apart in the source; their conditions may differ. Read-outs that look alike come from different tables or passages of the source.

Columns and labels:
[1] = cited from earlier work
[2] = cited from earlier work; for ALT elevations≥3× upper limit normal: large clinical trials; for clinical toxicity: clinic
SCHH [3] = experiment: Bile acids at increasing concentrations in SCHH over 24 hours (ATP, LDH); format: cell-based, human; details: 24 hr exposure
Description: Bile acids GCA, GCDCA and GDCA were evaluated at increasing concentrations in SCHH over 24 hours. ATP (FIG. 9) and LDH (FIG. 10) content were measured.

SCHH [4] = experiment: Feasibility study: BA toxicity potency, Ambrisentan vs Sitaxsentan; format: cell-based, human; details: 2-200 uM test compound
From the text: Generally, the presently disclosed methods can in some embodiments comprise culturing SCHH with a concentration range of a bile acid (e.g. DCA), or bile acid pool to identify the toxicity profile of the bile acid (such as by measurement of ATP and/or LDH; dotted line in FIGS. 7 and 8). In a parallel study, SCHH can be exposed to a concentration range of DCA or combination of bile acids in the presence of a potential cholestatic hepatotoxicant.

BSEP = BSEP (Homo sapiens, UniProt O95342); experiment: In vitro assay of BSEP effect
NTCP = molecular target: T1, NTCP (Homo sapiens, UniProt Q14973); experiment: In vitro assays of NTCP inhibition
T1 sequence (Q14973 1-349): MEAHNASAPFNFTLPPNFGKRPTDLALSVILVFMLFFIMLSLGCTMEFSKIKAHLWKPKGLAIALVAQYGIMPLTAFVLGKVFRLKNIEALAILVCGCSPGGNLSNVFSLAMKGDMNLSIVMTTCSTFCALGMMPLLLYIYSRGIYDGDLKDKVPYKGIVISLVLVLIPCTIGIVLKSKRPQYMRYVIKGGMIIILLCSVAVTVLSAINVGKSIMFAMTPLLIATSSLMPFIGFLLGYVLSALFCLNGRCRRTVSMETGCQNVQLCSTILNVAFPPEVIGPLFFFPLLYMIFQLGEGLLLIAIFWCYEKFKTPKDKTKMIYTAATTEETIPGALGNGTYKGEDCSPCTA

[5] = tested on: sandwich-cultured human hepatocytes; experiment: Bile acid pool toxicity profile shift in SCHH, ApoTox-Glo Triplex Assay; format: cell-based; details: 5 mM and 11 mM glucose
Description: Utilizing similar methodology from the previous sections, hepatotoxicity was evaluated with ApoTox-Glo™ Triplex Assay.
The effects of the test compounds were evaluated in the presence of the individual bile acids and in the presence of a bile acid pool. The effects were compared to bile acid treatment alone. DMSO treatment alone was used as a comparator for hepatotoxicity. Hepatotoxicity was evaluated with ApoTox-Glo™ Triplex Assay, which assesses viability, cytotoxicity and apoptosis.
A bile acid mixture was evaluated, and was composed of 4 different bile acids maintained at a physiological relevant ratio of each bile acid. […] Individual bile acids were dosed using the concentration they represent in the mixture.
A treatment group without free fatty acids was used as a control. Hepatotoxicity was evaluated with ApoTox-Glo™ Triplex Assay which assessed viability, cytotoxicity and apoptosis.

FXR = molecular target: T2, FXR (Homo sapiens, UniProt Q96RI1); experiment: FXR antagonism: OSTβ mRNA induction in SCHH co-treated with CDCA and CsA; format: cell-based
T2 construct: endogenous in cells; host or cells: SCHH (sandwich-cultured hepatocytes from donors)
T2 sequence (Q96RI1 1-486): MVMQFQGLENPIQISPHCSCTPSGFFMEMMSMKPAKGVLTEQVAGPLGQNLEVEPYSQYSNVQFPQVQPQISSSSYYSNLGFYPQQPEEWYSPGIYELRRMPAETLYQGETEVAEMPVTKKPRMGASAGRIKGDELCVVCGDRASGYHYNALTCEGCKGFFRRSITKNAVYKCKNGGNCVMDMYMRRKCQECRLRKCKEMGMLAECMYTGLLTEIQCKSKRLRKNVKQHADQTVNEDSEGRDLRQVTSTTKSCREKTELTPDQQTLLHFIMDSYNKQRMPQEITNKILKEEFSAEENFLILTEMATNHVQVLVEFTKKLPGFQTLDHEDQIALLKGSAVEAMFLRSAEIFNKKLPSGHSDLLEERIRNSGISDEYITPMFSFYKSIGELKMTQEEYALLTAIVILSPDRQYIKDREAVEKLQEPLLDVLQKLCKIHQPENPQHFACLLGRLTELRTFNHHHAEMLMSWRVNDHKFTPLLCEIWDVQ
From the text: Alternatively, the reduction of OSTβ mRNA content may be explained by cytotoxicity under the conditions evaluated.

SCHH [6] = experiment: Cholestasis hepatotoxicity screening assay in SCHH (LDH leakage, ATP content), standard vs sensitization medium; format: cell-based; details: human, 24 h, 100 μM
From the text: As discussed above, hepatocytes become susceptible to bile acid toxicity (e.g. cholestatic hepatotoxicity) when drug exposure inhibits bile acid efflux routes (e.g. BSEP and/or MRP3/4) and 1) prevents (antagonize) FXR from sensing the rising intracellular concentrations of bile acids; or 2) inhibits bile acid efflux through OSTα/β; or 3) a combination of both. […] Briefly, hepatocytes were established in a sandwich-cultured configuration for four days. […] Drug exposures ranged from about 8× to about 16× Cmax to account for concentrating effect that can occur in the portal vein following oral administration of test compounds. Following 24 hours, LDH leakage and ATP content was evaluated utilizing commercially available assays.
The sensitization medium included free fatty acids and a physiological mixture of primary and secondary bile acids, described above (GCDCA, GCA, DCA, and GDCA) at an adequate concentration (250 μM) that minimized toxicity but challenged the hepatocytes bile acid homeostasis mechanism.

[7] = conditions used to examine FXR antagonism

Sequence of BSEP (O95342 whole entry, species assumed): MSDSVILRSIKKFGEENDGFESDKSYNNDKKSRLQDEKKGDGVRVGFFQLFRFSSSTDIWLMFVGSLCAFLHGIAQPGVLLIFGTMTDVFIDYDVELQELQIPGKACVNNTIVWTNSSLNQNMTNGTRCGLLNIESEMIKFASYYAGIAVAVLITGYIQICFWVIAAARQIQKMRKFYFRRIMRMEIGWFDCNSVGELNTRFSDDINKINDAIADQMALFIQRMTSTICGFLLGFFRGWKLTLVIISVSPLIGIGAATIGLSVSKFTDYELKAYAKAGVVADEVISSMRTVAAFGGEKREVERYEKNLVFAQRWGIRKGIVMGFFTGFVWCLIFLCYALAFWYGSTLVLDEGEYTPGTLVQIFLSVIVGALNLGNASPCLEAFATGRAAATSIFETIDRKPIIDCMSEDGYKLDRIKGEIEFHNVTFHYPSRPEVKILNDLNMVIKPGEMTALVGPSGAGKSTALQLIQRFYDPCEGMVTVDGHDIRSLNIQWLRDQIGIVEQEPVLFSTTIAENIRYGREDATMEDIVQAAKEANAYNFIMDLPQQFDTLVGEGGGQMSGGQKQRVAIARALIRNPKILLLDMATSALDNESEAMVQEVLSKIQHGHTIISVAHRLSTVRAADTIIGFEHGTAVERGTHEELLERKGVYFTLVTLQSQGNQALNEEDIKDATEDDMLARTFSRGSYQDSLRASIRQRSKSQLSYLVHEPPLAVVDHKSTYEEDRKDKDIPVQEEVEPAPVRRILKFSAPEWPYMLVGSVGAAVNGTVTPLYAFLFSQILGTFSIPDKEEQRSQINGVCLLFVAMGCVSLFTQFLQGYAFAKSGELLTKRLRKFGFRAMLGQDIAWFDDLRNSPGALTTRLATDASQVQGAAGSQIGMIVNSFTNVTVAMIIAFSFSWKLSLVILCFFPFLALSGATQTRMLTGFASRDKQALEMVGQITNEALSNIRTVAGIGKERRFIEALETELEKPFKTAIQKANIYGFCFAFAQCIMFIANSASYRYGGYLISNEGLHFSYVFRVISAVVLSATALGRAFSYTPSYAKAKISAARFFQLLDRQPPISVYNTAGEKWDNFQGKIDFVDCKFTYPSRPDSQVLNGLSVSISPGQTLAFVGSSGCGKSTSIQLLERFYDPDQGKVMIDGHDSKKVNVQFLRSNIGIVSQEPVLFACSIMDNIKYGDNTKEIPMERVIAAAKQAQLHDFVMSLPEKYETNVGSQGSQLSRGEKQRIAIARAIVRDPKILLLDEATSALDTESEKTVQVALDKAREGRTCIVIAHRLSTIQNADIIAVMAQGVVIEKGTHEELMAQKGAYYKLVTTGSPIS

## CN(CCOc1ccc(CC2SC(=O)NC2=O)cc1)c1ccccn1 (stereo not shown) [rosiglitazone]
[1]; Dawson et al. 2012
  Cmax: 1000 nM
[2]
  ALT elevations≥3× upper limit normal: not different from placebo recipients

## C[C@H](CCC(=O)NCC(=O)O)[C@H]1CC[C@H]2[C@@H]3[C@H](O)C[C@@H]4C[C@H](O)CC[C@]4(C)[C@H]3CC[C@]12C [GCDCA]
SCHH [3]
  relative toxicity in the ATP assay: equaled GDCA
  relative toxicity in the LDH assay: GDCA was greater than GCDCA

## COC(c1ccccc1)(c1ccccc1)[C@H](Oc1nc(C)cc(C)n1)C(=O)O [Ambrisentan]
SCHH [4]
  BA toxicity potency: No change in BA toxicity potency
[1]; in vivo
  Cmax: 3000 nM
[2]
  clinical toxicity: Well tolerated; no toxicity

## Cc1cc2c(cc1CC(=O)c1sccc1S(=O)(=O)Nc1onc(C)c1Cl)OCO2 [Sitaxsentan]
SCHH [4]
  BA toxicity potency: Decreased BA toxicity potency
[1]; in vivo
  Cmax: 23500 nM
BSEP
  BSEP effect: no BSEP effect
NTCP
  NTCP effect: potent/efficacious NTCP inhibitor
[2]
  clinical toxicity: Toxicity in clinic after 5 months; liver likely not primary site of toxicity; also recorded: No toxicity @ 3 months
[5]
  effect on hepatotoxicity of the bile acid pool: did not alter the hepatotoxicity of the bile acid pool

## COc1cccc(Cn2cc(C(=O)Nc3ccc(C)c(S(=O)(=O)N4CCOCC4)c3)c(-c3ccc(C)cc3)n2)c1 [DY268]
FXR; SCHH co-treated with CDCA and CsA, troglitazone 75-100 μM
  induction of OSTβ mRNA content: A similar effect was observed

## Cc1c(C)c2c(c(C)c1O)CCC(C)(COc1ccc(CC3SC(=O)NC3=O)cc1)O2 (stereo not shown) [troglitazone]
FXR; [7]
  ATP content: no significant decreases of ATP content
  LDH leakage: no significant decreases of ATP content or increases of LDH leakage
SCHH [6]
  ATP content: 0.9 % of control
  LDH leakage: 863 % of control
  LDH secretion: 490 % of control
  loss of ATP content: > 99 % of control

## CCc1ccc(CCOc2ccc(CC3SC(=O)NC3=O)cc2)nc1 (stereo not shown) [pioglitazone]
[1]; Dawson et al. 2012
  Cmax: 2900 nM
[2]
  ALT elevations≥3× upper limit normal: not different from placebo recipients

## C[C@H](CCC(=O)NCC(=O)O)[C@H]1CC[C@H]2[C@@H]3CC[C@@H]4C[C@H](O)CC[C@]4(C)[C@H]3C[C@H](O)[C@]12C [GDCA]
SCHH [3]
  relative toxicity in the ATP assay: GCDCA equaled GDCA
  relative toxicity in the LDH assay: greater than GCDCA

## C[C@H](CCC(=O)NCC(=O)O)[C@H]1CC[C@H]2[C@@H]3[C@H](O)C[C@@H]4C[C@H](O)CC[C@]4(C)[C@H]3C[C@H](O)[C@]12C [GCA]
SCHH [3]; increasing concentrations, ATP and LDH
  cytotoxicity of bile acid: not cytotoxic
